Measurements: patent US20100099561A1, “HETEROBICYCLIC ALKYLTHIO-BRIDGED ISOXAZOLINES” (E.I. DU PONT DE NEMOURS AND COMPANY, priority 2008, published 2010)

Legend:
Assay type in all cases: in vivo
[1] = tested on: barnyardgrass (Echinochloa crus-galli); assay: Test A preemergence, barnyardgrass; conditions: 0 to 100 scale (0 no effect, 100 complete control)
Excerpt: (§1) Seeds of barnyardgrass (Echinochloa crus-galli), large crabgrass (Digitaria sanguinalis), giant foxtail (Setaria faberi), morningglory (Ipomoea spp.), pigweed (Amaranthus retroflexus), velvetleaf (Abutilon theophrasti), wheat (Triticum aestivum), and corn (Zea mays) were planted into a blend of loam soil and sand and treated preemergence with a directed soil spray using test chemicals formulated in a non-phytotoxic solvent mixture which included a surfactant. At the same time these species were also treated with postemergence applications of test compounds formulated in the same manner. Plants ranged in height from two to ten cm and were in the one- to two-leaf stage for the postemergence treatment. Treated plants and untreated controls were maintained in a greenhouse for approximately ten days, after which time all treated plants were compared to untreated controls and visually evaluated for injury. Plant response ratings, summarized in Table A, are based on a 0 to 100 scale where 0 is no effect and 100 is complete control. A dash (-) response means no test result.

[2] = tested on: large crabgrass (Digitaria sanguinalis); assay: Test A preemergence, large crabgrass; conditions: 0 to 100 scale (0 no effect, 100 complete control)
Excerpt: as §1

[3] = tested on: giant foxtail (Setaria faberi); assay: Test A preemergence, giant foxtail; conditions: 0 to 100 scale (0 no effect, 100 complete control)
Excerpt: as §1

[4] = tested on: morningglory (Ipomoea spp.); assay: Test A preemergence, morningglory; conditions: 0 to 100 scale (0 no effect, 100 complete control)
Excerpt: as §1

[5] = tested on: pigweed (Amaranthus retroflexus); assay: Test A preemergence, pigweed; conditions: 0 to 100 scale (0 no effect, 100 complete control)
Excerpt: as §1

[6] = tested on: velvetleaf (Abutilon theophrasti); assay: Test A preemergence, velvetleaf; conditions: 0 to 100 scale (0 no effect, 100 complete control)
Excerpt: as §1

[7] = tested on: wheat (Triticum aestivum); assay: Test A preemergence, wheat; conditions: 0 to 100 scale (0 no effect, 100 complete control)
Excerpt: as §1

corn (Zea mays) [8] = assay: Test A preemergence, corn; conditions: 0 to 100 scale (0 no effect, 100 complete control)
Excerpt: as §1

[9] = tested on: barnyardgrass (Echinochloa crus-galli); assay: Test A postemergence, barnyardgrass; conditions: 0 to 100 scale (0 no effect, 100 complete control)
Excerpt: as §1

[10] = tested on: large crabgrass (Digitaria sanguinalis); assay: Test A postemergence, large crabgrass; conditions: 0 to 100 scale (0 no effect, 100 complete control)
Excerpt: as §1

[11] = tested on: giant foxtail (Setaria faberi); assay: Test A postemergence, giant foxtail; conditions: 0 to 100 scale (0 no effect, 100 complete control)
Excerpt: as §1

[12] = tested on: morningglory (Ipomoea spp.); assay: Test A postemergence, morningglory; conditions: 0 to 100 scale (0 no effect, 100 complete control)
Excerpt: as §1

[13] = tested on: pigweed (Amaranthus retroflexus); assay: Test A postemergence, pigweed; conditions: 0 to 100 scale (0 no effect, 100 complete control)
Excerpt: as §1

[14] = tested on: velvetleaf (Abutilon theophrasti); assay: Test A postemergence, velvetleaf; conditions: 0 to 100 scale (0 no effect, 100 complete control)
Excerpt: as §1

[15] = tested on: wheat (Triticum aestivum); assay: Test A postemergence, wheat; conditions: 0 to 100 scale (0 no effect, 100 complete control)
Excerpt: as §1

corn (Zea mays) [16] = assay: Test A postemergence, corn; conditions: 0 to 100 scale (0 no effect, 100 complete control)
Excerpt: as §1

rice (Oryza sativa) = assay: Test B flooded paddy test, rice; conditions: Flood, scale 0 to 100
Excerpt: (§2) Plant species in the flooded paddy test consisted of rice (Oryza sativa), umbrella sedge (Cyperus difformis), ducksalad (Heteranthera limosa) and barnyardgrass (Echinochloa crus-galli) grown to the 2-leaf stage for testing. At time of treatment, test pots were flooded to 3 cm above the soil surface, treated by application of test compounds directly to the paddy water, and then maintained at that water depth for the duration of the test. Treated plants and controls were maintained in a greenhouse for 13 to 15 days, after which time all species were compared to controls and visually evaluated. Plant response ratings, summarized in Table B, are based on a scale of 0 to 100 where 0 is no effect and 100 is complete control. A dash (-) response means no test result.

[17] = tested on: umbrella sedge (Cyperus difformis); assay: Test B flooded paddy test, umbrella sedge; conditions: Flood, scale 0 to 100
Excerpt: as §2

[18] = tested on: ducksalad (Heteranthera limosa); assay: Test B flooded paddy test, ducksalad; conditions: Flood, scale 0 to 100
Excerpt: as §2

[19] = tested on: barnyardgrass (Echinochloa crus-galli); assay: Test B flooded paddy test, barnyardgrass; conditions: Flood
Excerpt: as §2

## CC1(C)CC([S+]([O-])Cc2c(C(F)(F)Cl)nc3n(c2=O)CCCC3)=NO1 (stereo not shown) [Compound 32]
[1]; 125 g ai/ha
  Plant response rating, Barnyardgrass: 20
[1]; 500 g ai/ha
  Plant response rating, Barnyardgrass: 70
[2]; 125 g ai/ha
  Plant response rating, Crabgrass, Large: 50
[2]; 500 g ai/ha
  Plant response rating, Crabgrass, Large: 80
[3]; 125 g ai/ha
  Plant response rating, Foxtail, Giant: 30
[3]; 500 g ai/ha
  Plant response rating, Foxtail, Giant: 80
[4]; 125 g ai/ha
  Plant response rating, Morningglory: 0
[4]; 500 g ai/ha
  Plant response rating, Morningglory: 0
[5]; 125 g ai/ha
  Plant response rating, Pigweed: 0
[5]; 500 g ai/ha
  Plant response rating, Pigweed: 0
[6]; 125 g ai/ha
  Plant response rating, Velvetleaf: 0
[6]; 500 g ai/ha
  Plant response rating, Velvetleaf: 0
[7]; 125 g ai/ha
  Plant response rating, Wheat: 0
[7]; 500 g ai/ha
  Plant response rating, Wheat: 0
Corn (Zea mays) [8]; 125 g ai/ha
  Plant response rating, Corn: 0
Corn (Zea mays) [8]; 500 g ai/ha
  Plant response rating, Corn: 0
[9]; 125 g ai/ha
  Plant response rating, Barnyardgrass: 10
[9]; 500 g ai/ha
  Plant response rating, Barnyardgrass: 40
[10]; 125 g ai/ha
  Plant response rating, Crabgrass, Large: 10
[10]; 500 g ai/ha
  Plant response rating, Crabgrass, Large: 40
[11]; 125 g ai/ha
  Plant response rating, Foxtail, Giant: 0
[11]; 500 g ai/ha
  Plant response rating, Foxtail, Giant: 50
[12]; 125 g ai/ha
  Plant response rating, Morningglory: 40
[12]; 500 g ai/ha
  Plant response rating, Morningglory: 50
[13]; 125 g ai/ha
  Plant response rating, Pigweed: 0
[13]; 500 g ai/ha
  Plant response rating, Pigweed: 30
[14]; 125 g ai/ha
  Plant response rating, Velvetleaf: 0
[14]; 500 g ai/ha
  Plant response rating, Velvetleaf: 10
[15]; 125 g ai/ha
  Plant response rating, Wheat: 0
[15]; 500 g ai/ha
  Plant response rating, Wheat: 0
Corn (Zea mays) [16]; 125 g ai/ha
  Plant response rating, Corn: 0
Corn (Zea mays) [16]; 500 g ai/ha
  Plant response rating, Corn: 0
Rice (Oryza sativa); 31 g ai/ha
  Plant response rating, Rice: 0
Rice (Oryza sativa); 125 g ai/ha
  Plant response rating, Rice: 0
[17]; 31 g ai/ha
  Plant response rating, Sedge, Umbrella: 0
[17]; 125 g ai/ha
  Plant response rating, Sedge, Umbrella: 0
[18]; 31 g ai/ha
  Plant response rating, Ducksalad: 0
[18]; 125 g ai/ha
  Plant response rating, Ducksalad: 0
[19]; 31 g ai/ha, scale 0 to 100
  Plant response rating, Barnyardgrass: 0
[19]; 125 g ai/ha, scale 0 to 100
  Plant response rating, Barnyardgrass: 0

## CC1(C)CC([S+]([O-])Cc2c(C(F)(F)F)nc3cccnn3c2=O)=NO1 (stereo not shown) [Compound 46]
[1]; 125 g ai/ha
  Plant response rating, Barnyardgrass: 0
[1]; 500 g ai/ha
  Plant response rating, Barnyardgrass: 0
[2]; 125 g ai/ha
  Plant response rating, Crabgrass, Large: 0
[2]; 500 g ai/ha
  Plant response rating, Crabgrass, Large: 0
[3]; 125 g ai/ha
  Plant response rating, Foxtail, Giant: 0
[3]; 500 g ai/ha
  Plant response rating, Foxtail, Giant: 0
[4]; 125 g ai/ha
  Plant response rating, Morningglory: 0
[4]; 500 g ai/ha
  Plant response rating, Morningglory: 0
[5]; 125 g ai/ha
  Plant response rating, Pigweed: 0
[5]; 500 g ai/ha
  Plant response rating, Pigweed: 0
[6]; 125 g ai/ha
  Plant response rating, Velvetleaf: 0
[6]; 500 g ai/ha
  Plant response rating, Velvetleaf: 20
[7]; 125 g ai/ha
  Plant response rating, Wheat: 0
[7]; 500 g ai/ha
  Plant response rating, Wheat: 0
Corn (Zea mays) [8]; 125 g ai/ha
  Plant response rating, Corn: 0
Corn (Zea mays) [8]; 500 g ai/ha
  Plant response rating, Corn: 0
[9]; 125 g ai/ha
  Plant response rating, Barnyardgrass: 0
[9]; 500 g ai/ha
  Plant response rating, Barnyardgrass: 0
[10]; 125 g ai/ha
  Plant response rating, Crabgrass, Large: 0
[10]; 500 g ai/ha
  Plant response rating, Crabgrass, Large: 0
[11]; 125 g ai/ha
  Plant response rating, Foxtail, Giant: 0
[11]; 500 g ai/ha
  Plant response rating, Foxtail, Giant: 0
[12]; 125 g ai/ha
  Plant response rating, Morningglory: 0
[12]; 500 g ai/ha
  Plant response rating, Morningglory: 0
[13]; 125 g ai/ha
  Plant response rating, Pigweed: 0
[13]; 500 g ai/ha
  Plant response rating, Pigweed: 0
[14]; 125 g ai/ha
  Plant response rating, Velvetleaf: 0
[14]; 500 g ai/ha
  Plant response rating, Velvetleaf: 0
[15]; 125 g ai/ha
  Plant response rating, Wheat: 0
[15]; 500 g ai/ha
  Plant response rating, Wheat: 0
Corn (Zea mays) [16]; 125 g ai/ha
  Plant response rating, Corn: 0
Corn (Zea mays) [16]; 500 g ai/ha
  Plant response rating, Corn: 0
Rice (Oryza sativa); 31 g ai/ha
  Plant response rating, Rice: 0
Rice (Oryza sativa); 62 g ai/ha
  Plant response rating, Rice: 0
Rice (Oryza sativa); 125 g ai/ha
  Plant response rating, Rice: 0
Rice (Oryza sativa); 250 g ai/ha
  Plant response rating, Rice: 0
[17]; 31 g ai/ha
  Plant response rating, Sedge, Umbrella: 0
[17]; 62 g ai/ha
  Plant response rating, Sedge, Umbrella: 0
[17]; 125 g ai/ha
  Plant response rating, Sedge, Umbrella: 0
[17]; 250 g ai/ha
  Plant response rating, Sedge, Umbrella: 0
[18]; 31 g ai/ha
  Plant response rating, Ducksalad: 0
[18]; 62 g ai/ha
  Plant response rating, Ducksalad: 0
[18]; 125 g ai/ha
  Plant response rating, Ducksalad: 0
[18]; 250 g ai/ha
  Plant response rating, Ducksalad: 0
[19]; 31 g ai/ha, scale 0 to 100
  Plant response rating, Barnyardgrass: 0
[19]; 62 g ai/ha, scale 0 to 100
  Plant response rating, Barnyardgrass: 0
[19]; 125 g ai/ha, scale 0 to 100
  Plant response rating, Barnyardgrass: 0
[19]; 250 g ai/ha, scale 0 to 100 (0 no effect, 100 complete control)
  Plant response rating, Barnyardgrass: 0
